From ChEMBL document CHEMBL5380869, “Discovery of an Oral, Beyond-Rule-of-Five Mcl-1 Protein-Protein Interaction Modulator with the Potential of Treating Hematological Malignancies” (J Med Chem, 2023)
Values after ≈ are worked out from the molar mass of the structure shown. Blank lines part the entries; values can stand above or below the molecule they belong to. Active and inactive are the calls of the source. No cut-off for these calls is given here.

Tests used:
[1] = molecular target: T1, Cytochrome P450 2C8 (Homo sapiens, UniProt P10632); assay: Inhibition of human CYP2C8 assessed as fluorescent metabolites by CYP450 inhibition assay; format: ADME
T1 sequence (P10632 whole entry): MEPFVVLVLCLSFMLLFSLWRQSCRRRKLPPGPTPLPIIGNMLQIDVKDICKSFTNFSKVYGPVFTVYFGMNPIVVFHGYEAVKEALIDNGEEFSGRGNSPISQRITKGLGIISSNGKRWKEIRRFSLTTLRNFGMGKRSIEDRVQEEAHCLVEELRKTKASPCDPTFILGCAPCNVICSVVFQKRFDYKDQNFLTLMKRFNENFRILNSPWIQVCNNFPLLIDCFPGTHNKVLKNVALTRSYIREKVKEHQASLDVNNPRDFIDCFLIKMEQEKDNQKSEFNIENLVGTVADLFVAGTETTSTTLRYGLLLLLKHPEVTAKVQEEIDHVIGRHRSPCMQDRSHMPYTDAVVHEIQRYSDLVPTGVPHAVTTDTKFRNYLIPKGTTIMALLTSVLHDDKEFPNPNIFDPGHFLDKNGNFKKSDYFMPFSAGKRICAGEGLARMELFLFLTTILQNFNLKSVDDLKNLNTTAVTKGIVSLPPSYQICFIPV

[2] = Clearance in CD1 mouse at 1 mg/kg, iv administered as bolus dose; format: ADME, organism-based; settings: in vivo
[3] = Metabolic stability in human hepatocytes assessed as half life at 1 uM measured by LC-MS/MS analysis; format: ADME, cell-based, Hepatocyte
[4] = Fraction unbound in human plasma at 5 uM incubated for 4.5 hrs by rapid equilibrium dialysis; format: ADME, cell-free
[5] = Cardiotoxicity risk in human iPSC-CM assessed as calcium transients at 0.1 uM by CTCM assay; format: toxicity, cell-based
[6] = Fraction absorbed in CD1 mouse at 5 mg/kg, po administered as bolus dose; format: ADME, organism-based; settings: in vivo, read-out: Fabs
[7] = Intrinsic clearance in human liver microsomes measured upto 60 mins by LC-MS/MS analysis; format: ADME, Microsome; settings: read-out: CLH
[8] = test system: MOLP-8; assay: Induction apoptosis in human MOLP8 cells assessed as cell killing measured after 2 hrs by Caspase-Glo 3/7 Assay; format: functional, cell-based; settings: MOLP-8, 2 h
[9] = Inhibition of terbium-labelled Mcl-1 (unknown origin)/Bim BH3 peptide (H3N-(C/Cy5Mal)-WIAQELRRIGDEFN-OH) (unknown origin) interaction assessed as displacement of Cy5-labeled Bim BH3 peptide by TR-HTRF assay
[10] = Initial plasma concentration in CD1 mouse at 1 mg/kg, iv administered as bolus dose; format: ADME, organism-based
[11] = Oral bioavailability in CD1 mouse at 5 mg/kg administered as bolus dose; format: ADME, organism-based; settings: in vivo
[12] = AUClast in CD1 mouse at 5 mg/kg, po administered as bolus dose; format: ADME, organism-based; parameters: dose 5 mg/kg, route po; settings: in vivo
[13] = molecular target: Cytochrome P450 2C9 (Homo sapiens, UniProt P11712); assay: Inhibition of human CYP2C9 assessed as fluorescent metabolites by CYP450 inhibition assay; format: ADME
Sequence of Cytochrome P450 2C9 (P11712 whole entry): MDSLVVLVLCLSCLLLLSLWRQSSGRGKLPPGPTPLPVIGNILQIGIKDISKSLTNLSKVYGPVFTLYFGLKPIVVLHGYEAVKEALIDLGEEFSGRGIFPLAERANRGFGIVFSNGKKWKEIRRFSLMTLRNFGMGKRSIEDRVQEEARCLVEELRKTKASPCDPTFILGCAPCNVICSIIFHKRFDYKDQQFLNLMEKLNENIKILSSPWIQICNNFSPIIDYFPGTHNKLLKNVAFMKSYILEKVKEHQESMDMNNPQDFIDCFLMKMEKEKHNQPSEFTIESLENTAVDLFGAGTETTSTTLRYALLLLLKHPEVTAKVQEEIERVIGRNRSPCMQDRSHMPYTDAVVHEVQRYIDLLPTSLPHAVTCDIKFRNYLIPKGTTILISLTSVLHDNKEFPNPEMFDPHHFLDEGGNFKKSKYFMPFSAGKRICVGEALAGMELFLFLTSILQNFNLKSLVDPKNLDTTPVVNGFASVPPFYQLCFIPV

[14] = Volume of distribution at steady state in CD1 mouse at 1 mg/kg, iv administered as bolus dose; format: ADME, organism-based; settings: in vivo, read-out: Vdss
[15] = Hepatic intrinsic clearance in human hepatocytes measured per 10^6 cells at 1 uM measured upto 120 mins by LC-MS/MS analysis; format: ADME, cell-based, Hepatocyte; settings: read-out: CLH
[16] = molecular target: T2, Cytochrome P450 1A2 (Homo sapiens, UniProt P05177); assay: Inhibition of human CYP1A2 assessed as fluorescent metabolites by CYP450 inhibition assay; format: ADME
T2 sequence (P05177 whole entry): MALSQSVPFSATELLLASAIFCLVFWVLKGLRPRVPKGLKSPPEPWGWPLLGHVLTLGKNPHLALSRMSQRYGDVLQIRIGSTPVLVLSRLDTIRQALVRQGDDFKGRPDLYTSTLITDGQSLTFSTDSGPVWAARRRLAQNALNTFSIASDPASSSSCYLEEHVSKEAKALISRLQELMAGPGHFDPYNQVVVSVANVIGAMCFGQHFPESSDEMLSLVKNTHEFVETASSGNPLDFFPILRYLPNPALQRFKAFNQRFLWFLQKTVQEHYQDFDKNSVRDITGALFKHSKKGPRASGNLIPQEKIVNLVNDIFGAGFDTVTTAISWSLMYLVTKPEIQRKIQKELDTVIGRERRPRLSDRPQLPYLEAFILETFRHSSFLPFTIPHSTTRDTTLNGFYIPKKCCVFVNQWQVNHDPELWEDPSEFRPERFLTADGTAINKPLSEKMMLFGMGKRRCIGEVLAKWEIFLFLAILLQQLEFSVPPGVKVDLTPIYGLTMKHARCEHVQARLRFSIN

[17] = Thermodynamic (equilibrium) solubility of the compound measured after 3 days agitation in pH 2 buffer by LC-MS/MS analysis; format: physicochemical; settings: time 3 day, read-out: Therm_solubility
[18] = Cardiotoxicity risk in human iPSC-CM assessed as calcium transients at 0.3 uM by CTCM assay; format: toxicity, cell-based
[19] = test system: MOLM-13; assay: In vivo inhibition of Mcl-1 in human MOLM-13 cells sc implanted in NSG mouse assessed as disruption of Mcl-1/Bak complex in tumor at 10 mg/kg, po; format: functional, organism-based
[20] = Cardiotoxicity risk in human iPSC-CM assessed as calcium transients at 3 uM by CTCM assay; format: toxicity, cell-based
[21] = Lipophilicity, CHI logD of compound at pH 7.4 by UPLC-TOF analysis; format: physicochemical; settings: buffer
[22] = Toxicity in NSG mouse xenografted with human MOLM-13 cells at 10 mg/kg, po; format: organism-based; settings: in vivo
[23] = molecular target: T3, CYP3A4 (Homo sapiens, UniProt P08684); assay: Induction of human CYP3A4 assessed as fold change at 10 uM by CYP450 induction assay; format: ADME; settings: read-out: FC
T3 sequence (P08684 whole entry): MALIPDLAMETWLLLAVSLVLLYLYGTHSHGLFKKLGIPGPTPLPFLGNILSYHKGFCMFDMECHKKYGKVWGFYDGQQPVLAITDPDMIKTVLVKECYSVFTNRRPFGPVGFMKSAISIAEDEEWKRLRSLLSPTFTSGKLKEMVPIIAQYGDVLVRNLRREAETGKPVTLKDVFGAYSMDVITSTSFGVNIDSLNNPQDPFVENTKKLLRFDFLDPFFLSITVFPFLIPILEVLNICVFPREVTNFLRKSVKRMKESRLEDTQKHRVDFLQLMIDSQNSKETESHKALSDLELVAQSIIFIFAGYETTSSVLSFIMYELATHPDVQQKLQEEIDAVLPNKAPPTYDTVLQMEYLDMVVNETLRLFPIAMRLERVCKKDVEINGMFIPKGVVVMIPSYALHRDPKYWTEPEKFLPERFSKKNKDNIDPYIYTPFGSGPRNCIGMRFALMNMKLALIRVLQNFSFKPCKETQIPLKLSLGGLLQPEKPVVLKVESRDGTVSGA

[24] = Metabolic stability in Swiss CD-1 mouse hepatocytes assessed as half life at 1 uM measured by LC-MS/MS analysis; format: ADME, cell-based, Hepatocyte
[25] = Tmax in CD1 mouse at 5 mg/kg, po administered as bolus dose; format: ADME, organism-based; settings: in vivo
[26] = Cmax in CD1 mouse at 5 mg/kg, po administered as bolus dose; format: ADME, organism-based; parameters: dose 5 mg/kg, route po; settings: in vivo
[27] = Hepatic intrinsic clearance in Swiss CD-1 mouse hepatocytes measured per 10^6 cells at 1 uM measured upto 120 mins by LC-MS/MS analysis; format: ADME, cell-based, Hepatocyte; settings: read-out: CLH
[28] = Intrinsic clearance in mouse liver microsomes measured upto 60 mins by LC-MS/MS analysis; format: ADME, Microsome; settings: read-out: CLH
[29] = Fraction unbound in mouse plasma at 5 uM incubated for 4.5 hrs by rapid equilibrium dialysis; format: ADME, cell-free
[30] = test system: MOLM-13; assay: In vivo inhibition of Mcl-1 in human MOLM-13 cells sc implanted in NSG mouse assessed as disruption of Mcl-1/Bim complex in tumor at 10 mg/kg, po; format: functional, organism-based
[31] = molecular target: Cytochrome P450 2C19 (Homo sapiens, UniProt P33261); assay: Inhibition of human CYP2C19 assessed as fluorescent metabolites by CYP450 inhibition assay; format: ADME
Sequence of Cytochrome P450 2C19 (P33261 whole entry): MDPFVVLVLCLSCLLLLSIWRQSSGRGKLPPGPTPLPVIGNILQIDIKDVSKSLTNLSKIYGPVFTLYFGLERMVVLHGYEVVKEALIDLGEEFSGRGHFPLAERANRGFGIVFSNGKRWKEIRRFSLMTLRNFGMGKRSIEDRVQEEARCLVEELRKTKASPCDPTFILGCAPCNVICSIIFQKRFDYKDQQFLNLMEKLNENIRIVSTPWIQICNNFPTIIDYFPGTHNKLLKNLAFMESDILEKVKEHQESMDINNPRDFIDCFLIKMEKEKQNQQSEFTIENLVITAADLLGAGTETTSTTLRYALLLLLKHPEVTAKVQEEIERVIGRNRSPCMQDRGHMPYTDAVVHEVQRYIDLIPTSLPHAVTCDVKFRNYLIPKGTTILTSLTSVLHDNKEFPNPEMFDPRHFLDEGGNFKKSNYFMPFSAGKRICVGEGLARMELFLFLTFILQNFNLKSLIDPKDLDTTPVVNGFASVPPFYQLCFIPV

[32] = Half life in CD1 mouse at 1 mg/kg, iv administered as bolus dose; format: ADME, organism-based; settings: in vivo
[33] = molecular target: Cytochrome P450 2D6 (Homo sapiens, UniProt P10635); assay: Inhibition of human CYP2D6 assessed as fluorescent metabolites by CYP450 inhibition assay; format: ADME
Sequence of Cytochrome P450 2D6 (P10635 whole entry): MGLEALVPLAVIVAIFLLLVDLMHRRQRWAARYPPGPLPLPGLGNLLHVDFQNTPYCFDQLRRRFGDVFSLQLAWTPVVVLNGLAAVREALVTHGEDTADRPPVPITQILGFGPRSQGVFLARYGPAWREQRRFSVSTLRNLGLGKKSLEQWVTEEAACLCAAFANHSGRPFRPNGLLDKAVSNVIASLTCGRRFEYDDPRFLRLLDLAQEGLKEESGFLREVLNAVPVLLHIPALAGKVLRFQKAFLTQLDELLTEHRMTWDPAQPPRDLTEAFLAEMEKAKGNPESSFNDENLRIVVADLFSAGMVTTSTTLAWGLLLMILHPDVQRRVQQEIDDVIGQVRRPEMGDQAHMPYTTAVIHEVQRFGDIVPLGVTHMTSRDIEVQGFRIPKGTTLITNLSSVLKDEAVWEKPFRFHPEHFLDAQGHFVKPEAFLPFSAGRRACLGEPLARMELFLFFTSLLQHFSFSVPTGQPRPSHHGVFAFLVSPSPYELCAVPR

[34] = molecular target: T4, CYP1A2 (Homo sapiens, UniProt P05177); assay: Induction of human CYP1A2 assessed as fold change at 1 uM by CYP450 induction assay; format: ADME; settings: read-out: FC
T4 sequence (P05177 whole entry): T2 sequence (P05177 whole entry)

[35] = molecular target: T3, CYP3A4; assay: Induction of human CYP3A4 assessed as fold change at 1 uM by CYP450 induction assay; format: ADME; settings: read-out: FC
[36] = Thermodynamic (equilibrium) solubility of the compound measured after 3 days agitation in pH 7 buffer by LC-MS/MS analysis; format: physicochemical; settings: time 3 day, read-out: Therm_solubility
[37] = Cardiotoxicity risk in human iPSC-CM assessed as calcium transients at 1 uM by CTCM assay; format: toxicity, cell-based
[38] = molecular target: T4, CYP1A2; assay: Induction of human CYP1A2 assessed as fold change at 10 uM by CYP450 induction assay; format: ADME; settings: read-out: FC

IC50 [1]: 5.01 µM | clearance [2]: 25 mL/min/kg | t1/2 [3]: 5.8 h | Fu [4]: 0.05% | Fa [6]: 99% | microsomal CLint [7]: < 7.7 µL/min/mg | Ki [9]: 0.011 nM | C0 [10]: 574 ng/mL | bioavailability [11]: 78% | AUC(0-t) [12]: 2520 ng·h/mL | inhibition (INH) [13]: Not Active | Vd [14]: 3.01 L/kg | hepatocyte CLint at 1 µM [15]: 1.99 µL/min/1e6 cells | inhibition (INH) [16]: Not Active | solubility thermodynamic at 72 h [17]: < 0.1 µM | chromatographic logD [21]: 3 | fold induction at 10 µM [23]: 4.4 | half-life at 1 µM [24]: > 560 min | Tmax [25]: 2.33 h | Cmax [26]: 578 ng/mL | hepatocyte CLint at 1 µM [27]: < 1.24 µL/min/1e6 cells | microsomal CLint [28]: 15 µL/min/mg | Fu [29]: 0.02% | inhibition (INH) [31]: Not Active | half-life [32]: 109 min | inhibition (INH) [33]: Not Active | fold induction at 1 µM [34]: 0.95 | fold induction at 1 µM [35]: 1.3 | solubility thermodynamic at 72 h [36]: 520 µM (≈ 401 µg/mL)
SMILES: COc1nn(C)cc1C(=O)N[S@@]1(=O)=NC(=O)c2ccc3c(c2)N(C[C@@H]2CCO[C@H]2[C@@H](OC)/C(F)=C/C[C@H](C)C1)C[C@@]1(CCCc2cc(Cl)ccc21)CO3
Activity [5]: Non-Toxic | AC50 [8]: 44 nM | Activity [18]: Non-Toxic | inhibition [19]: Active | Activity [20]: Non-Toxic | Activity [22]: Non-Toxic | inhibition [30]: Active | Activity [37]: Non-Toxic

Fu [4]: 0.11% | microsomal CLint [7]: < 7.7 µL/min/mg | Ki [9]: 0.011 nM | inhibition (INH) [13]: Not Active | inhibition (INH) [16]: Not Active | solubility thermodynamic at 72 h [17]: 516 µM (≈ 477 µg/mL) | chromatographic logD [21]: 2.9 | fold induction at 10 µM [38]: 1.1 | microsomal CLint [28]: < 7.7 µL/min/mg | Fu [29]: 0.08% | inhibition (INH) [31]: Not Active | inhibition (INH) [33]: Not Active | fold induction at 1 µM [35]: 1 | solubility thermodynamic at 72 h [36]: 561 µM (≈ 519 µg/mL)
SMILES: COc1nn(C)cc1C(=O)N[S@@]1(=O)=NC(=O)c2ccc3c(c2)N(C[C@@H]2CCO[C@H]2[C@@](CN2CCN4CCOC[C@@H]4C2)(OC)/C(F)=C/C[C@H](C)C1)C[C@@]1(CCCc2cc(Cl)ccc21)CO3
AC50 [8]: 23.2 nM | Activity [20]: Non-Toxic | Activity [37]: Non-Toxic
